One experiment deals with TLR7 (Homo sapiens (Human), UniProt Q9NYK1). Nature of the experiment: TLR7 human peripheral blood mononuclear cell (PBMC) cell-based assay (GS-986 as agonist; IL-6 and IFNα readout). The settings on record: human PBMCs, TLR7 agonist GS-986 at 400 nM, 6 hours, antagonist potency; read-out: TLR-7 EC50. The procedure: Human peripheral blood mononuclear cells (PBMCs) consist of lymphocytes, monocytes and dendritic cells that express TLR7, TLR8 and TLR9. These cells respond to TLR7, TLR8 and TLR9 ligand stimulation and produce cytokines and chemokines in vitro and in vivo. Human PBMCs are therefore suitable to be used in a cell-based assay to assess the in vitro potency of a TLR 7, 8, and/or 9 antagonist.
After counting, the cell density was adjusted to 2 million cells/ml and incubated for 1 hour at 37° C., 5% CO2 for recovery. Following the recovery, the cells were plated by adding 50 μl per well (100,000 cells) to 384-well cell culture plates (Greiner) containing 250 nl of test antagonists in 100% DMSO per well, in a 10 points dose response in quadruplicates. PBMCs were incubated in the presence of test antagonists for one hour at 37° C., 5% CO2 before being stimulated with a TLR7 or TLR9agonist. […] PBMCs were incubated in the presence of the test antagonist and the TLR7 (or TLR9) agonist for an additional 6 hours at 37° C., 5% CO2. At the end of the incubation, the cell culture plates were centrifuged at 500 g for 5 min, and the cell culture supernatant was collected. The level of cytokines (IL-6 and IFNα) in the supernatant was measured by electrochemiluminescence immunoassays (Mesoscale Discovery) following manufacturer's recommended protocols.

A further experiment deals with TLR8 (Homo sapiens (Human), UniProt Q9NR97). Briefly: TLR8 human peripheral blood mononuclear cell (PBMC) cell-based assay (Compound A as agonist; TNFα and IL12p40 readout). To be noted: human PBMCs, TLR8 agonist Compound A at 800 nM, 6 hours, antagonist potency; read-out: TLR-8 EC50. The procedure:
After counting, the cell density was adjusted to 2 million cells/ml and incubated for 1 hour at 37° C., 5% CO2 for recovery. Following the recovery, the cells were plated by adding 50 μl per well (100,000 cells) to 384-well cell culture plates (Greiner) containing 250 nl of test antagonists in 100% DMSO per well, in a 10 points dose response in quadruplicates. PBMCs were incubated in the presence of antagonists for one hour at 37° C., 5% CO2 before being stimulated with TLR8 agonist. […] PBMCs were incubated in the presence of antagonist and the TLR8 agonist for an additional 6 hours at 37° C., 5% CO2. At the end of the incubation, the cell culture plates were centrifuged at 500 g for 5 min, and the cell culture supernatant was collected. The level of cytokines (TNFα and IL12p40) in the supernatant was measured by electrochemiluminescence immunoassays (Mesoscale Discovery) following manufacturer's recommended protocols.

By EC50 is commonly meant the concentration that produces a half-maximal response.

TLR8, sequence (Q9NR97 27-1041): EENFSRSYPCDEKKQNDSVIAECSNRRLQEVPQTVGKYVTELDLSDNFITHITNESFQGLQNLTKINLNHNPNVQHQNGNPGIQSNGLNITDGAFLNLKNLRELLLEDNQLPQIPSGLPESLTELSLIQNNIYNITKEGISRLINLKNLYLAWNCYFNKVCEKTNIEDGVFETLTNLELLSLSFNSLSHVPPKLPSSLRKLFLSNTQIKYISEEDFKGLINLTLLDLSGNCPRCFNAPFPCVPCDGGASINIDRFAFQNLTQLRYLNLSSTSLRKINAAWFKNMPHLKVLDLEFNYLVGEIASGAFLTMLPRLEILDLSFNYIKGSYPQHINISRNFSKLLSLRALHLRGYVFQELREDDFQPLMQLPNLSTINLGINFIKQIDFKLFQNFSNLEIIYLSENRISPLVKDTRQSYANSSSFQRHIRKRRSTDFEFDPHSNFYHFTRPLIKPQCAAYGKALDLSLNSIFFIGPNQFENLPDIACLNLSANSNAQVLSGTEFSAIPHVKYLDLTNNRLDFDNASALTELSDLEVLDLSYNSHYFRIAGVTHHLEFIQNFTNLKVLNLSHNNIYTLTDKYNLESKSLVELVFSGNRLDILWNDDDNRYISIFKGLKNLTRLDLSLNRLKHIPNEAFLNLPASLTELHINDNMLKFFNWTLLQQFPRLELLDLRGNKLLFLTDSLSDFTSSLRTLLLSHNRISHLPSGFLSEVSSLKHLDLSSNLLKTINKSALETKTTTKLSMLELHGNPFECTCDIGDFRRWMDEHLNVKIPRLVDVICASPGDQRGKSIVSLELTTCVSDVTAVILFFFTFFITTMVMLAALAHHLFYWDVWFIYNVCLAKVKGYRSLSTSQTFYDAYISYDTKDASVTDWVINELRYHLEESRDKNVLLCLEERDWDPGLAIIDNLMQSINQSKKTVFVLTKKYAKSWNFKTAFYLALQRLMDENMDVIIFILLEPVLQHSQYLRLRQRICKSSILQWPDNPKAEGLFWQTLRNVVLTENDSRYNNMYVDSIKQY
TLR7, sequence (Q9NYK1 27-1049): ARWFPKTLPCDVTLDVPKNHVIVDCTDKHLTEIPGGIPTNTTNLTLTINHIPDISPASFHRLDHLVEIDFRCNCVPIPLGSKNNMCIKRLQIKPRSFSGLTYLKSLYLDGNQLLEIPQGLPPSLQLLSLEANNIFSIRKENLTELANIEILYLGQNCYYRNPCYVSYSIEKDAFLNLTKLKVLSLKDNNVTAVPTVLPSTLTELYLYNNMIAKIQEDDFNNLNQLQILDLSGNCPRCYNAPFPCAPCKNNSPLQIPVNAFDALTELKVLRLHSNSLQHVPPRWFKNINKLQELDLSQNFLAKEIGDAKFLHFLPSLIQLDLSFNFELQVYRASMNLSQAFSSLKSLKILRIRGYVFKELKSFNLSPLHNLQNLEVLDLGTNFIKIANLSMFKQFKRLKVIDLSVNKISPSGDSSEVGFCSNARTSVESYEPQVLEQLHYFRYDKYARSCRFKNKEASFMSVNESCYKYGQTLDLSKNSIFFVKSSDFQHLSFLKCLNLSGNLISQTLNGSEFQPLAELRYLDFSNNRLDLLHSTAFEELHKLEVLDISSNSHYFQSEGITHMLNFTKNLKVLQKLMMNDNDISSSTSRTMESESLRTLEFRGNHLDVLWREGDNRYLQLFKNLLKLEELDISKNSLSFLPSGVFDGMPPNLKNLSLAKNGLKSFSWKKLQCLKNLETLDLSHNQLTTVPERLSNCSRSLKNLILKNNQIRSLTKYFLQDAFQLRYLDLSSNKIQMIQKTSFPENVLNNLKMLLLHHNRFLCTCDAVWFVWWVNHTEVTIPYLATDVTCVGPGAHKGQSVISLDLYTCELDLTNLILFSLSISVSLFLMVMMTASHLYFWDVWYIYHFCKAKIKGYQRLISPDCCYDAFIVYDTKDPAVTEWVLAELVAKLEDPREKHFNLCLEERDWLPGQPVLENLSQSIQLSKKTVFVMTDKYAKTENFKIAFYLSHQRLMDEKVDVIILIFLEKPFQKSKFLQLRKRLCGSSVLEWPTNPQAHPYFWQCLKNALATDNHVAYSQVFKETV

Turning to `Cc1c(-c2[nH]c3sc([C@H]4C[C@@H](c5nnc([C@@H]6COCCN6)o5)C4)c(C)c3c2C(C)C)cn2ncnc2c1C` (single isomer, unassigned) [Example 243], the EC50 on TLR7 worked out at 1.25 nM; on TLR8 it was 21.4 nM.
The like results for `Cc1c(-c2[nH]c3sc(C4CC(n5cc(C6COCCN6)nn5)C4)c(C)c3c2C(C)C)cn2ncnc2c1C` (single isomer, unassigned) [Example 244, 3-(1-(3-(5-(7,8-dimethyl-[1,2,4]triazolo[1,5-a]pyridin-6-yl)-4-isopropyl-3-methyl-6H-thieno[2,3-b]pyrrol-2-yl)cyclobutyl)-1H-1,2,3-triazol-4-yl)morpholine] were, in that order, 0.14 nM and 9.43 nM.
As to `Cc1c(-c2[nH]c3sc(C4CC(n5cc(C6COCCN6)nn5)C4)c(C)c3c2C(C)C)cn2ncnc2c1C` (single isomer, unassigned) [Example 245, 3-(1-(3-(5-(7,8-dimethyl-[1,2,4]triazolo[1,5-a]pyridin-6-yl)-4-isopropyl-3-methyl-6H-thieno[2,3-b]pyrrol-2-yl)cyclobutyl)-1H-1,2,3-triazol-4-yl)morpholine], the concentration giving a half-maximal response (EC50) on TLR7 was 0.17 nM; on TLR8 it was 3.33 nM.
The like results for `Cc1c(C2CCCN(CC(N)=O)CC2)sc2[nH]c(-c3cc(C)c4ncnn4c3)c(C(C)C)c12` (single isomer, unassigned) [Example 262, 2-(4-(4-isopropyl-3-methyl-5-(8-methyl-[1,2,4]triazolo[1,5-a]pyridin-6-yl)-6H-thieno[2,3-b]pyrrol-2-yl)azepan-1-yl)acetamide] were, in that order, less than 0.05 nM and 4.54 nM.
For the compound `Cc1c(C2CCCN(CC(N)=O)CC2)sc2[nH]c(-c3cc(C)c4ncnn4c3)c(C(C)C)c12` (single isomer, unassigned) [Example 263, 2-(4-(4-isopropyl-3-methyl-5-(8-methyl-[1,2,4]triazolo[1,5-a]pyridin-6-yl)-6H-thieno[2,3-b]pyrrol-2-yl)azepan-1-yl)acetamide], the results for the concentration giving a half-maximal response (EC50) at TLR7 and at TLR8 were 1.17 nM and 18.6 nM, respectively.
For `Cc1c(-c2[nH]c3sc(C4CCN(C5CCNC5=O)CC4)c(C)c3c2C(C)C)cn2ncnc2c1C` (single isomer, unassigned) [Example 290, 3-[4-[5-(7,8-dimethyl-[1,2,4]triazolo[1,5-a]pyridin-6-yl)-4-isopropyl-3-methyl-6H-thieno[2,3-b]pyrrol-2-yl]-1-piperidyl]pyrrolidin-2-one], in that order: 0.65 nM and 19.3 nM.
The like results for `Cc1c(-c2[nH]c3sc(C4CCN(C5CCNC5=O)CC4)c(C)c3c2C(C)C)cn2ncnc2c1C` (single isomer, unassigned) [Example 291, 3-[4-[5-(7,8-dimethyl-[1,2,4]triazolo[1,5-a]pyridin-6-yl)-4-isopropyl-3-methyl-6H-thieno[2,3-b]pyrrol-2-yl]-1-piperidyl]pyrrolidin-2-one] were, in that order, 0.6 nM and 22.2 nM.
Take `Cc1c(-c2[nH]c3sc(C4CCC5(CC4)CNCCO5)c(C)c3c2C(C)C)cn2ncnc2c1C` (single isomer, unassigned) [Example 292, 9-(5-(7,8-dimethyl-[1,2,4]triazolo[1,5-a]pyridin-6-yl)-4-isopropyl-3-methyl-6H-thieno[2,3-b]pyrrol-2-yl)-1-oxa-4-azaspiro[5.5]undecane]: the results for the EC50 on TLR7 and on TLR8 were 0.09 nM and 3.91 nM, respectively.
For `Cc1c(-c2[nH]c3sc(C4CCC5(CC4)CNCCO5)c(C)c3c2C(C)C)cn2ncnc2c1C` (single isomer, unassigned) [Example 293, 9-(5-(7,8-dimethyl-[1,2,4]triazolo[1,5-a]pyridin-6-yl)-4 isopropyl-3-methyl-6H-thieno[2,3-b]pyrrol-2-yl)-1-oxa-4-azaspiro[5.5]undecane], the EC50 came out at 1.67 nM on TLR7 and 20.5 nM on TLR8.
For `Cc1c(-c2[nH]c3sc(C4CCC(N5CC6(CCNC6=O)C5)CC4)c(C)c3c2C(C)C)cn2ncnc2c1C` (single isomer, unassigned) [Example 305, 2-[4-[5-(7,8-dimethyl-[1,2,4]triazolo[1,5-a]pyridin-6-yl)-4-isopropyl-3-methyl-6H-thieno[2,3-b]pyrrol-2-yl]cyclohexyl]-2,6-diazaspiro[3.4]octan-5-one], in that order: 0.78 nM and 4.44 nM.
For `Cc1c(-c2[nH]c3sc(C4CCC(N5CC6(CCNC6=O)C5)CC4)c(C)c3c2C(C)C)cn2ncnc2c1C` (single isomer, unassigned) [Example 306, 2-[4-[5-(7,8-dimethyl-[1,2,4]triazolo[1,5-a]pyridin-6-yl)-4-isopropyl-3-methyl-6H-thieno[2,3-b]pyrrol-2-yl]cyclohexyl]-2,6-diazaspiro[3.4]octan-5-one], in that order: less than 0.05 nM and 0.49 nM.
Consider `Cc1c(-c2[nH]c3sc(C4CC5(CCN(CCS(C)(=O)=O)C5)C4)c(C)c3c2C(C)C)cn2ncnc2c1C` (single isomer, unassigned) [Example 313, 5-(7,8-dimethyl-[1,2,4]triazolo[1,5-a]pyridin-6-yl)-4-isopropyl-3-methyl-2-(6-(2-(methylsulfonyl)ethyl)-6-azaspiro[3.4]octan-2-yl)-6H-thieno[2,3-b]pyrrole], for which the concentration giving a half-maximal response (EC50) on TLR7 came to 2.51 nM; on TLR8, 1.19 nM.
For `Cc1c(-c2[nH]c3sc(C4CC5(CCN(CCS(C)(=O)=O)C5)C4)c(C)c3c2C(C)C)cn2ncnc2c1C` (single isomer, unassigned) [Example 314, 5-(7,8-dimethyl-[1,2,4]triazolo[1,5-a]pyridin-6-yl)-4-isopropyl-3-methyl-2-(6-(2-(methylsulfonyl)ethyl)-6-azaspiro[3.4]octan-2-yl)-6H-thieno[2,3-b]pyrrole], in that order: 10 nM and 1.22 nM.
The like results for `Cc1c(-c2[nH]c3sc(C4CCC45CN(CC(N)=O)C5)c(C)c3c2C(C)C)cn2ncnc2c1C` (single isomer, unassigned) [Example 315, 2-(5-(5-(7,8-dimethyl-[1,2,4]triazolo[1,5-a]pyridin-6-yl)-4 isopropyl-3-methyl-6H-thieno[2,3-b]pyrrol-2-yl)-2-azaspiro[3.3]heptan-2-yl)acetamide] were, in that order, 28.2 nM and 32.4 nM.
For the compound `Cc1c(-c2[nH]c3sc(C4CCC45CN(CC(N)=O)C5)c(C)c3c2C(C)C)cn2ncnc2c1C` (single isomer, unassigned) [Example 316, 2-(5-(5-(7,8-dimethyl-[1,2,4]triazolo[1,5-a]pyridin-6-yl)-4-isopropyl-3-methyl-6H-thieno[2,3-b]pyrrol-2-yl)-2-azaspiro[3.3]heptan-2-yl)acetamide], the EC50 at TLR7 was determined as 47.3 nM; on TLR8, 108 nM.
For `Cc1cc(-c2[nH]c3sc(C(=O)N(C)C4CCNCC4)cc3c2C(C)C)cn2ncnc12` [Example 1, 4-isopropyl-N-methyl-5-(8-methyl-[1,2,4]triazolo[1,5-a]pyridin-6-yl)-N-(piperidin-4-yl)-6H-thieno[2,3-b]pyrrole-2-carboxamide], in that order: 0.56 nM and 8.93 nM.
`Cc1cc(-c2[nH]c3sc(C(=O)N4CCNCC4)cc3c2C(C)C)cn2ncnc12` [Example 2]: the EC50 worked out at 1.04 nM at TLR7 and 5.79 nM on TLR8.
The like results for `Cc1cc(-c2[nH]c3sc(C(=O)N(C)[C@H]4CCNC4)cc3c2C(C)C)cn2ncnc12` [Example 3] were, in that order, 0.27 nM and 9.95 nM.
The like results for `Cc1cc(-c2[nH]c3sc(C(=O)N(C)C4CCN(CCO)CC4)cc3c2C(C)C)cn2ncnc12` [Example 5] were, in that order, 0.5 nM and 5.96 nM.
Consider `Cc1cc(-c2[nH]c3sc(S(=O)(=O)N4CCNCC4)cc3c2C(C)C)cn2ncnc12` [Example 6, 4-Isopropyl-5-(8-methyl-[1,2,4]triazolo[1,5-a]pyridin-6-yl)-2-(piperazin-1-ylsulfonyl)-6H-thieno[2,3-b]pyrrole], for which the half-maximal effective concentration (EC50) on TLR7 is 21.5 nM; on TLR8, 84.6 nM.
For `Cc1c(C(=O)N(C)C2CCN(CCO)CC2)sc2[nH]c(-c3cc(C)c4ncnn4c3)c(C(C)C)c12` [Example 7, N-(1-(2-hydroxyethyl)piperidin-4-yl)-4-isopropyl-N,3-dimethyl-5-(8-methyl-[1,2,4]triazolo[1,5-a]pyridin-6-yl)-6H-thieno[2,3-b]pyrrole-2-carboxamide], in that order: 0.14 nM and 3.71 nM.

The values are drawn from US11661431B2, “Thienopyrrole compounds” (Gilead Sciences, Inc., priority 2021, dated 2023).
